By pIC50 is commonly meant the IC50 on a negative log10 scale, so that one unit is a factor of ten.

Each structure is given as a SMILES string. pIC50: −log10 of the molar value. In brackets after ≈: the same amount, converted by molar mass.

Data on three molecules can be found in PMC4096218 (Journal of Medicinal Chemistry, 2014).

For one assay, the target named is T1, EcUPPS (Escherichia coli, UniProt P60472).
T1 sequence (P60472 1-253): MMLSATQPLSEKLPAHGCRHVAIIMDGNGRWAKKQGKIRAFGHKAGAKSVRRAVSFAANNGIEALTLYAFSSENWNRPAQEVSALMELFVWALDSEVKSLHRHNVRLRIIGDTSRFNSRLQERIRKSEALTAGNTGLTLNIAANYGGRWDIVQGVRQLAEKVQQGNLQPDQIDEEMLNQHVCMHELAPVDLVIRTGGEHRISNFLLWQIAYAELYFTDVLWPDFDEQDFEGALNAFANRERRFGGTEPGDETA
The following applies: inhibitor in EcUPPS X-ray structure 2E98; cited from earlier work.

For assay [1], the system named is Bacillus anthracis strain Sterne. As to the kind of experiment: microbe, parasite or virus in culture. The assay is classed as cell-based.
In assay [2] the test system is panel of both Gram-positive and Gram-negative bacteria. Format: cell-based. The following applies: for MIC values (range in words): B. anthracis Sterne, MRSA, VRE, L. monocytogenes.

Turning to `O=P(O)(O)C(O)(Cc1cccc(-c2cccc3c2oc2ccccc23)c1)P(=O)(O)O` [BPH-629], at EcUPPS, the pIC50 was about 6.52.

In turn, `Cc1cc(Cl)ccc1-c1ccc(/C=C2\SC(=S)N(CC(=O)O)C2=O)o1` [Compound 1] had an MIC in assay [1] of 1 to 2 µg/mL (≈ 2.54 to 5.08 µM). Moreover, in assay [2], the “MIC values (range in words)” value is listed as “high ng/mL to low μg/mL range”, the “growth of Gram negatives” value is on record as “did not inhibit the growth of Gram negatives” and the “growth of Gram positives” value is “inhibited the growth of Gram positives”.

For `O=C(O)CCN1C(=O)/C(=C/c2ccc(-c3ccc(Cl)cc3Cl)o2)SC1=S` [Compound 4], in assay [2], the “MIC values (range in words)” value was “high ng/mL to low μg/mL range”, the “growth of Gram negatives” value is “did not inhibit the growth of Gram negatives” and the “growth of Gram positives” value is on record as “inhibited the growth of Gram positives”.
